Details: Liquid, Ebulliometric method (Recirculating still)

C1CCCCC1 [cyclohexane]
Details | vapor or sublimation pressure [kPa]
313.4 K | 24.95
315.76 K | 27.43
318.05 K | 29.95
320.11 K | 32.46
322.06 K | 34.9
323.92 K | 37.43
325.66 K | 39.94
327.32 K | 42.42
328.9 K | 44.91
330.44 K | 47.45
331.94 K | 49.92
333.33 K | 52.43
334.6 K | 54.76
335.99 K | 57.44
337.31 K | 59.98
338.5 K | 62.44
339.65 K | 64.86
340.81 K | 67.47
341.92 K | 69.94
342.99 K | 72.45
344.05 K | 74.96
344.09 K | 75.07
345.11 K | 77.54
346.07 K | 79.92
347.06 K | 82.52
348.01 K | 85.03
348.86 K | 87.27
349.84 K | 89.99
350.73 K | 92.48
351.55 K | 94.84
353.73 K | 101.33

CCCCCC [hexane]
Details | vapor or sublimation pressure [kPa]
303.16 K | 25.04
305.43 K | 27.5
307.43 K | 29.95
309.54 K | 32.44
311.47 K | 35.07
313.25 K | 37.51
314.84 K | 39.98
316.52 K | 42.44
317.92 K | 45.02
319.49 K | 47.45
320.76 K | 50.01
322.26 K | 52.52
323.37 K | 55.03
324.59 K | 57.32
325.89 K | 60.07
326.95 K | 62.46
328.09 K | 64.77
329.19 K | 67.22
330.16 K | 69.64
331.45 K | 72.45
332.28 K | 74.82
333.48 K | 77.48
334.39 K | 79.84
335.33 K | 82.31
336.26 K | 84.88
337.14 K | 87.26
338.02 K | 89.85
338.91 K | 92.35
339.73 K | 94.85
340.44 K | 97.02
341.79 K | 101.32

C1=CCCCC1 [cyclohexene]
Details | vapor or sublimation pressure [kPa]
315.56 K | 24.94
318.01 K | 27.43
320.26 K | 29.98
322.34 K | 32.47
324.31 K | 34.95
326.23 K | 37.52
327.96 K | 39.98
329.61 K | 42.45
331.23 K | 45.01
332.73 K | 47.48
334.22 K | 50.02
335.62 K | 52.51
336.98 K | 55.02
338.27 K | 57.52
339.52 K | 59.98
340.73 K | 62.46
341.94 K | 65.02
343.07 K | 67.51
344.16 K | 69.97
345.27 K | 72.51
346.3 K | 74.96
347.33 K | 77.48
348.35 K | 80.02
349.31 K | 82.52
350.26 K | 84.99
351.18 K | 87.45
352.09 K | 89.96
352.97 K | 92.46
353.85 K | 95.01
354.71 K | 97.52
355.97 K | 101.33

C=CCCCC [hex-1-ene]
Details | vapor or sublimation pressure [kPa]
298.07 K | 24.93
300.32 K | 27.41
302.55 K | 30.08
304.54 K | 32.46
306.31 K | 34.84
308.2 K | 37.48
309.84 K | 39.96
311.51 K | 42.53
312.98 K | 44.96
314.38 K | 47.42
315.79 K | 49.92
317.17 K | 52.53
318.43 K | 54.98
319.62 K | 57.39
320.84 K | 59.94
322.02 K | 62.51
323.16 K | 64.97
324.21 K | 67.45
325.25 K | 69.88
326.29 K | 72.44
327.32 K | 75.04
328.25 K | 77.45
329.21 K | 79.98
330.11 K | 82.42
331.01 K | 84.93
331.86 K | 87.33
332.74 K | 89.92
333.62 K | 92.54
334.38 K | 94.82
335.24 K | 97.45
336.48 K | 101.3
